Values quoted from earlier work in paper PMC7732027 (Bioorganic & medicinal chemistry letters, 2019).

Test system: A/H3N2 viruses with PA I38T/F substitutions
Conditions: cited from earlier work

COC(=O)OCOc1c2n(ccc1=O)N([C@@H]1c3ccccc3SCc3c1ccc(F)c3F)[C@@H]1COCCN1C2=O [BXM, baloxavir marboxil]
reduction in BXM susceptibility: more than 10 fold
